Source: patent US20130203718A1 (priority 2010, published 2013)

Key:
hAR = target: T1, hAR (Homo sapiens, UniProt P10275); assay: APRn selectivity: transactivation in HEK293T cells transiently expressing hAR; type: cell-based
T1 construct: expressed in transfected cells; host or cells: HEK 293T
T1 sequence (P10275 1-920): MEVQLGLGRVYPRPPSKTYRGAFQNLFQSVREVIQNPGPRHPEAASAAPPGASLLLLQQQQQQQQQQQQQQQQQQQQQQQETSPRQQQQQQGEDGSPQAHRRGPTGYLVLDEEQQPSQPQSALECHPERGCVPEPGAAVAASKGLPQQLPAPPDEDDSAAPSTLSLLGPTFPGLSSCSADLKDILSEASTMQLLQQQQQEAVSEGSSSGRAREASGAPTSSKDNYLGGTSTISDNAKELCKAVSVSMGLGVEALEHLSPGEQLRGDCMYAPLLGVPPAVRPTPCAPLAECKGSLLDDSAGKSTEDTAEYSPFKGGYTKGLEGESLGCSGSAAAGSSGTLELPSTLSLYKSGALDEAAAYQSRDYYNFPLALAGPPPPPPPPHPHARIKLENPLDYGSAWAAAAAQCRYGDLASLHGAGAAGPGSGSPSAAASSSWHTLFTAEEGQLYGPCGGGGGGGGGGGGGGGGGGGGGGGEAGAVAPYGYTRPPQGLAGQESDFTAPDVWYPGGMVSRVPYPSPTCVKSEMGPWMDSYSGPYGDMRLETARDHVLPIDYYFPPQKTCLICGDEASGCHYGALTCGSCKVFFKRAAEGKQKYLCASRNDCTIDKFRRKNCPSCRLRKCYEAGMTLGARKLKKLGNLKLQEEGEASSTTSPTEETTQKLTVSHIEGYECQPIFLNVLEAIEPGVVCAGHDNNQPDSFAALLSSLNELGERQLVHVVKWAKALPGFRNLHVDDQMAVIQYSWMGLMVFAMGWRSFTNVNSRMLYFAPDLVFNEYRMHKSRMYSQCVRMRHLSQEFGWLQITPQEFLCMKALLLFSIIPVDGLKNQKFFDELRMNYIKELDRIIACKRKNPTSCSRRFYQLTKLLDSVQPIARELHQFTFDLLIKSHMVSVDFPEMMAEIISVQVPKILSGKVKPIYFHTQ
Description: (§1) Measurement of the APRn Selectivity in HEK 293T.
(§2) The HEK-293T cells were cultured and transfected according to the method described above for the PR transactivation assays. The expression vectors pcDNA-hAR, kindly provided by G. A. Coetzee, pchGR (Hellal-Levy, C et al. FEBS Lett 1999, 464, 9), and pchMR (Fagart, J. et al. EMBO J. 1998, 17, 3317) were used for studying the ability of APRn to activate or inactivate the AR, GR and MR, respectively. For each transfection assays, 2 μg of the expression vector was used together with 7 μg of the GRE2-Luc reporter vector. Dihydrotestosterone (DHT), dexamethasone (Dex) and Aldosterone (Aldo) were selected as AR, GR and MR ligands, respectively. They were used at the concentration of 10^−9 M. The APRn agonist and antagonist efficacy for AR, GR and MR were measured as described above for PR. The results are the mean±SEM of three independent experiments.
(§3) Transfection assays were performed in HEK 293T cells by using expression vectors for the hAR, hGR and hMR and the GRE2-Luc reporter used for the PR transactivation assays.

hMR = target: T2, hMR (Homo sapiens, UniProt P08235); assay: APRn selectivity: transactivation in HEK293T cells transiently expressing hMR; type: cell-based; details: mean±SEM; for MR Antagonist efficacy (%): aldosterone 10^−9 M
T2 construct: expressed in transfected cells; host or cells: HEK 293T
T2 sequence (P08235 1-984): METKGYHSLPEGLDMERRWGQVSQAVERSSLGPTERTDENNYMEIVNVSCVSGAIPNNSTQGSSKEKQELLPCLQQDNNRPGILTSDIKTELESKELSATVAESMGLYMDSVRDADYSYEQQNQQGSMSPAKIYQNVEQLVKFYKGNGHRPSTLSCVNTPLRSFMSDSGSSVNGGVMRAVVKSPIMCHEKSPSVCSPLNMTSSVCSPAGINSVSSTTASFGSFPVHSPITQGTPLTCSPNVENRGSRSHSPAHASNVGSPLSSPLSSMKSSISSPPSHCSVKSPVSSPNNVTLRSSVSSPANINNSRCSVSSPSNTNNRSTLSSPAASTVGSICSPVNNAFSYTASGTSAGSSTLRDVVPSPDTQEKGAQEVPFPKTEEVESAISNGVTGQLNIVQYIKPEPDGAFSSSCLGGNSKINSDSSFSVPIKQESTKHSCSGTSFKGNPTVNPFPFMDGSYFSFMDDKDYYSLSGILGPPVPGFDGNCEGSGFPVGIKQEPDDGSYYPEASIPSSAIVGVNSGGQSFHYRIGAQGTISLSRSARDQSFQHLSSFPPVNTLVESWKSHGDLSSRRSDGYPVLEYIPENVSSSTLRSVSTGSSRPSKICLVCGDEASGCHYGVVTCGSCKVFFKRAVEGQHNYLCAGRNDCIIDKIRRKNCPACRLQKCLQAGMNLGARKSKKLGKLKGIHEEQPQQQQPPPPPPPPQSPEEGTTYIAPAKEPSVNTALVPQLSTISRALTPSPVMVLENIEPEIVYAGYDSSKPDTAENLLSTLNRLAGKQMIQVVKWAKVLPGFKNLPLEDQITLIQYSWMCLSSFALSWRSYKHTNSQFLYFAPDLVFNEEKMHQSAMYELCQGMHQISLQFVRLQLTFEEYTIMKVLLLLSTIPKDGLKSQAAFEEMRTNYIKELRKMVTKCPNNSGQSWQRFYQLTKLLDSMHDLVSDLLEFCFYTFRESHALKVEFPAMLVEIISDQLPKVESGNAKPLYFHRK
Description: as §1, §2, §3

hGR = target: T3, hGR (Homo sapiens, UniProt P04150); assay: APRn selectivity: transactivation in HEK293T cells transiently expressing hGR; type: cell-based; details: HEK293T transiently expressing hGR, mean±SEM; for GR Antagonist efficacy (%): dexamethasone 10^−9 M; for Emax: HEK-293T, read-out: GR Agonist efficacy (%)
T3 construct: expressed in transfected cells; host or cells: HEK 293T
T3 sequence (P04150 1-777): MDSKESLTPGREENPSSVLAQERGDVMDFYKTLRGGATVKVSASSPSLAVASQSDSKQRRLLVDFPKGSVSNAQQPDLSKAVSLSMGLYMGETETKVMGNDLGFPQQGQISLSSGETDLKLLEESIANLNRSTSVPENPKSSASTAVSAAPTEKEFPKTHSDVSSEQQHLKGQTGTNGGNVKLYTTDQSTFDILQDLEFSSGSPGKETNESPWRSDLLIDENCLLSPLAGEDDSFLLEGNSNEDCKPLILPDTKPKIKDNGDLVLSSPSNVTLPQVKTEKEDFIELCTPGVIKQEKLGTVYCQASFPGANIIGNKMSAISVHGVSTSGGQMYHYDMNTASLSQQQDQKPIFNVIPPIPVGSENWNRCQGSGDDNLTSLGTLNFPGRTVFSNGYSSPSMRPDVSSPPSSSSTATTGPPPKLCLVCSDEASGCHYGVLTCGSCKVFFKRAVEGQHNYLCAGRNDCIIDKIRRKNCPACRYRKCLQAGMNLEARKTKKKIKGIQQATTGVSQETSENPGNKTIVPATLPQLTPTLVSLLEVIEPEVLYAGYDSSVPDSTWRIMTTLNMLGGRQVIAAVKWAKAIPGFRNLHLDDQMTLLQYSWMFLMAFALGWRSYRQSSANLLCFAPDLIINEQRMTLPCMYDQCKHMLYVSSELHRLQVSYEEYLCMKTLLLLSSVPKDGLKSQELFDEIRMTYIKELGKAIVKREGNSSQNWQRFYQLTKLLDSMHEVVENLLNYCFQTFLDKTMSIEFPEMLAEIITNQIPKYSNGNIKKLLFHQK
Description: as §1, §2, §3

Row | Compound | melting point [°C] | agonist efficacy towards hAR (in words) (hAR; HEK293T, FIG. 11) | selectivity for hPR vs hAR, hGR and hMR (in words) (hAR; conclusion from hAR, hGR and hMR transactivation assays) | MR Antagonist efficacy (%) (hMR) | MR Agonist efficacy (%) (hMR) | GR Antagonist efficacy (%) (hGR) | Emax (hGR) [%]
1 | CC(=O)[C@H]1CC[C@H]2[C@@H]3CC[C@H]4C[C@@H](F)CC[C@]4(C)[C@H]3CC[C@]12C [APR-17, 3β-Fluoro-5α-pregnan-20-one] | 154 to 155 | low agonist efficacy | selective hPR antagonists | – | – | – | –
2 | C[C@]12CC[C@H](F)C[C@@H]1CC[C@@H]1[C@@H]2CC[C@]2(C)[C@@H](O)CC[C@@H]12 [APR-40, 3β-Fluoro-5α-androstan-17β-ol] | 150 to 151 | – | – | 0.4 ± 2.6 | 0.57 ± 0.05 | 5.5 ± 3.9 | 0.3 ± 0.06
3 | CC#C[C@]1(O)CCC2C3CC=C4C[C@@H](F)CC[C@]4(C)C3CC[C@@]21C (stereo partly drawn) [APR-44, 31-Fluoro-17α-(1-propynyl)androst-5-en-17β-ol] | 136 to 137 | – | – | 1.6 ± 5.5 | 0.47 ± 0.10 | 2.0 ± 2.8 | 0.2 ± 0.1
4 | C#C[C@]1(O)CCC2C3CC=C4C[C@@H](F)CC[C@@H]4C3CC[C@@]21C (stereo partly drawn) [APR-50, 17α-Ethynyl-3β-fluoro-19-nor-androst-5-en-17β-ol] | 149 to 150 | – | – | – | – | 7.4 ± 1.9 | 0.25 ± 0.1
